In the CheMixHub viscosity set:
± gives the uncertainty stated by the source.

Assay: xn = mol fraction of the nth substance listed

c1ccccc1 + CCO
Conditions | viscosity [mPa·s]
293.15 K, 101 kPa, x1 = 0.16 | 1.017 ± 0.027
293.15 K, 101 kPa, x1 = 0.37 | 0.81 ± 0.021
293.15 K, 101 kPa, x1 = 0.64 | 0.657 ± 0.017
298.15 K, 101 kPa, x1 = 0.1259 | 0.916 ± 0.009
298.15 K, 101 kPa, x1 = 0.16 | 0.926 ± 0.025
298.15 K, 101 kPa, x1 = 0.2547 | 0.805 ± 0.008
298.15 K, 101 kPa, x1 = 0.37 | 0.759 ± 0.02
298.15 K, 101 kPa, x1 = 0.4079 | 0.708 ± 0.007
298.15 K, 101 kPa, x1 = 0.554 | 0.643 ± 0.007
298.15 K, 101 kPa, x1 = 0.64 | 0.624 ± 0.017
298.15 K, 101 kPa, x1 = 0.676 | 0.611 ± 0.006
298.15 K, 101 kPa, x1 = 0.779 | 0.583 ± 0.006
298.15 K, 101 kPa, x1 = 0.842 | 0.584 ± 0.006
298.15 K, 101 kPa, x1 = 0.91 | 0.587 ± 0.006
298.15 K, 101.33 kPa, x1 = 0.0518 | 1.013 ± 0.008
298.15 K, 101.33 kPa, x1 = 0.1059 | 0.959 ± 0.006
298.15 K, 101.33 kPa, x1 = 0.1078 | 0.955 ± 0.008
298.15 K, 101.33 kPa, x1 = 0.1897 | 0.88 ± 0.006
298.15 K, 101.33 kPa, x1 = 0.1934 | 0.884 ± 0.007
298.15 K, 101.33 kPa, x1 = 0.2966 | 0.794 ± 0.005
298.15 K, 101.33 kPa, x1 = 0.3308 | 0.776 ± 0.007
298.15 K, 101.33 kPa, x1 = 0.3795 | 0.728 ± 0.006
298.15 K, 101.33 kPa, x1 = 0.3983 | 0.731 ± 0.005
298.15 K, 101.33 kPa, x1 = 0.4887 | 0.681 ± 0.005
298.15 K, 101.33 kPa, x1 = 0.5514 | 0.651 ± 0.006
298.15 K, 101.33 kPa, x1 = 0.5729 | 0.647 ± 0.006
298.15 K, 101.33 kPa, x1 = 0.5993 | 0.638 ± 0.004
298.15 K, 101.33 kPa, x1 = 0.6579 | 0.607 ± 0.005
298.15 K, 101.33 kPa, x1 = 0.6973 | 0.61 ± 0.004
298.15 K, 101.33 kPa, x1 = 0.7073 | 0.588 ± 0.005
298.15 K, 101.33 kPa, x1 = 0.7987 | 0.59 ± 0.004
298.15 K, 101.33 kPa, x1 = 0.8126 | 0.567 ± 0.005
298.15 K, 101.33 kPa, x1 = 0.8995 | 0.582 ± 0.004
298.15 K, 101.33 kPa, x2 = 0.0192 | 0.567 ± 0.005
298.15 K, 101.33 kPa, x2 = 0.113 | 0.645 ± 0.0052
298.15 K, 101.33 kPa, x2 = 0.2 | 0.597 ± 0.012
298.15 K, 101.33 kPa, x2 = 0.306 | 0.642 ± 0.0051
298.15 K, 101.33 kPa, x2 = 0.5 | 0.712 ± 0.0057
298.15 K, 101.33 kPa, x2 = 0.692 | 0.816 ± 0.0065
298.15 K, 101.33 kPa, x2 = 0.892 | 0.977 ± 0.0078
298.16 K, 101 kPa, x2 = 0.1 | 0.583 ± 0.005
298.16 K, 101 kPa, x2 = 0.2 | 0.587 ± 0.005
298.16 K, 101 kPa, x2 = 0.3 | 0.605 ± 0.005
298.16 K, 101 kPa, x2 = 0.4 | 0.635 ± 0.005
298.16 K, 101 kPa, x2 = 0.5 | 0.675 ± 0.006
298.16 K, 101 kPa, x2 = 0.6 | 0.723 ± 0.006
298.16 K, 101 kPa, x2 = 0.7 | 0.782 ± 0.007
298.16 K, 101 kPa, x2 = 0.8 | 0.861 ± 0.007
298.16 K, 101 kPa, x2 = 0.9 | 0.959 ± 0.008
303 K, 100 kPa, x2 = 0.4 | 0.596 ± 0.005
303.15 K, 101 kPa, x1 = 0.1259 | 0.841 ± 0.009
303.15 K, 101 kPa, x1 = 0.16 | 0.839 ± 0.022
303.15 K, 101 kPa, x1 = 0.2547 | 0.737 ± 0.008
303.15 K, 101 kPa, x1 = 0.37 | 0.681 ± 0.018
303.15 K, 101 kPa, x1 = 0.4079 | 0.65 ± 0.007
303.15 K, 101 kPa, x1 = 0.554 | 0.593 ± 0.006
303.15 K, 101 kPa, x1 = 0.64 | 0.571 ± 0.015
303.15 K, 101 kPa, x1 = 0.676 | 0.564 ± 0.006
303.15 K, 101 kPa, x1 = 0.779 | 0.544 ± 0.006
303.15 K, 101 kPa, x1 = 0.842 | 0.546 ± 0.006
303.15 K, 101 kPa, x1 = 0.91 | 0.547 ± 0.006
308 K, 100 kPa, x2 = 0.4 | 0.551 ± 0.004
308.15 K, 101 kPa, x1 = 0.1259 | 0.769 ± 0.008
308.15 K, 101 kPa, x1 = 0.16 | 0.772 ± 0.021
308.15 K, 101 kPa, x1 = 0.2547 | 0.675 ± 0.007
308.15 K, 101 kPa, x1 = 0.37 | 0.623 ± 0.017
308.15 K, 101 kPa, x1 = 0.4079 | 0.598 ± 0.006
308.15 K, 101 kPa, x1 = 0.554 | 0.548 ± 0.006
308.15 K, 101 kPa, x1 = 0.64 | 0.538 ± 0.014
308.15 K, 101 kPa, x1 = 0.676 | 0.526 ± 0.006
308.15 K, 101 kPa, x1 = 0.779 | 0.511 ± 0.005
308.15 K, 101 kPa, x1 = 0.842 | 0.511 ± 0.005
308.15 K, 101 kPa, x1 = 0.91 | 0.51 ± 0.005
313 K, 100 kPa, x2 = 0.4 | 0.528 ± 0.004
313.15 K, 101 kPa, x1 = 0.1259 | 0.705 ± 0.007
313.15 K, 101 kPa, x1 = 0.16 | 0.699 ± 0.019
313.15 K, 101 kPa, x1 = 0.2547 | 0.622 ± 0.007
313.15 K, 101 kPa, x1 = 0.37 | 0.567 ± 0.015
313.15 K, 101 kPa, x1 = 0.4079 | 0.553 ± 0.006
313.15 K, 101 kPa, x1 = 0.5 | 0.5326 ± 0.0079
313.15 K, 101 kPa, x1 = 0.554 | 0.51 ± 0.005
313.15 K, 101 kPa, x1 = 0.64 | 0.5 ± 0.013
313.15 K, 101 kPa, x1 = 0.676 | 0.488 ± 0.005
313.15 K, 101 kPa, x1 = 0.7 | 0.4812 ± 0.0072
313.15 K, 101 kPa, x1 = 0.779 | 0.478 ± 0.005
313.15 K, 101 kPa, x1 = 0.842 | 0.481 ± 0.005
313.15 K, 101 kPa, x1 = 0.91 | 0.479 ± 0.005
313.15 K, 101.33 kPa, x2 = 0.113 | 0.525 ± 0.0042
313.15 K, 101.33 kPa, x2 = 0.306 | 0.515 ± 0.0041
313.15 K, 101.33 kPa, x2 = 0.5 | 0.555 ± 0.0044
313.15 K, 101.33 kPa, x2 = 0.692 | 0.629 ± 0.005
313.15 K, 101.33 kPa, x2 = 0.892 | 0.748 ± 0.006
318 K, 100 kPa, x2 = 0.4 | 0.477 ± 0.004
318.15 K, 101 kPa, x1 = 0.1259 | 0.646 ± 0.007
318.15 K, 101 kPa, x1 = 0.2547 | 0.573 ± 0.006
318.15 K, 101 kPa, x1 = 0.4079 | 0.514 ± 0.005
318.15 K, 101 kPa, x1 = 0.554 | 0.475 ± 0.005
318.15 K, 101 kPa, x1 = 0.676 | 0.458 ± 0.005
318.15 K, 101 kPa, x1 = 0.779 | 0.447 ± 0.005
318.15 K, 101 kPa, x1 = 0.842 | 0.451 ± 0.005
318.15 K, 101 kPa, x1 = 0.91 | 0.451 ± 0.005
323.15 K, 101.33 kPa, x2 = 0.2 | 0.424 ± 0.0085
